In patent publication US5276170A, “Azido-substituted aromatic amino acids” (The United States of America as represented by the …, priority 1992, dated 1994):
Where two headings read alike, the source gives them in different places.

Key:
[1] = test system: PC12 cells; experiment: Effect on PC12 cell growth ([3H]thymidine and [3H]leucine incorporation over 5 days); type: cell-based; conditions: presence and absence of NGF
Method: Cell growth was estimated both visually and by the incorporation of [^3 H]thymidine and [^3 H]leucine over a period of 5 days in the presence and absence of nerve growth factor, 50 nanogm/well (NGF-7S was obtained from Boehringer Mannheim Biochemicals, Indianapolis, Ind.; labeled amino acids and thymidine were obtained from New England Nuclear, Boston, Mass.). On day one, compound 1 was added in concentrations ranging from 0.005 to 1.5 mM. Less than 10% inhibition in isotope-incorporation was observed between control and cultures over the five day period.

[2] = test system: PC12 cells; experiment: Incorporation of tyrosine, leucine and thymidine into PC12 cells; type: cell-based; conditions: for inhibition at 1000 µM: Rattus norvegicus
Method: The incorporation (2 μCi/well) of [^14 CU]tyrosine, [^3 H]thymidine were measured in the presence and absence of 2-azidotyrosine (1.0 mM) over a period of 72 hours. PC12 cells were grown as monolayers in 150 cm^2 tissue culture flasks at 37° C. in 6% CO2 in Dulbecco's modified Eagle's medium supplemented with 7% fetal bovine serum, 7% horse serum, and 100 μg streptomycin and 100 units of penicillin per ml. The cells were split after 3 days and aliquots (2 ml) transferred to 6 well culture plates. 2-Azidotyrosine (final concentration, 1 mM), [^14 CU] tyrosine (2 μCi/well), [^3 H]leucine (2 μCi/well), and [^3 H]thymidine (2 μCi/well) were added in 0.5 ml solutions in cell media. The final volume of each well was adjusted to 3.0 ml. The cultures were incubated in the dark at 37° C. in 6% CO2 for 12, 24, 48 and 72 hrs. Cells were removed and transferred to conical tubes (10 ml), sedimented by centrifugation, and washed 3X with phosphate buffered saline, pH 7.2. The cell sediment was dissolved in 0.5 ml of a solution of 0.5N NAOH containing 1% SDS over a period of 30 min., neutralized with 0.5 ml 0.5N HCl, and the isotope content measured by scintillation spectrometry. The results are expressed at the mean±SEM for 3 wells for each set of conditions.

[3] = molecular target: tyrosine phenol-lyase (Citrobacter freundii, UniProt P31013); experiment: Tyrosine phenol-lyase catalyzed hydrolytic cleavage to ammonium pyruvate and 3-azidophenol; type: biochemical; conditions: as substrate; % of Vmax of L-tyrosine
Chain of tyrosine phenol-lyase (P31013 whole entry, species assumed): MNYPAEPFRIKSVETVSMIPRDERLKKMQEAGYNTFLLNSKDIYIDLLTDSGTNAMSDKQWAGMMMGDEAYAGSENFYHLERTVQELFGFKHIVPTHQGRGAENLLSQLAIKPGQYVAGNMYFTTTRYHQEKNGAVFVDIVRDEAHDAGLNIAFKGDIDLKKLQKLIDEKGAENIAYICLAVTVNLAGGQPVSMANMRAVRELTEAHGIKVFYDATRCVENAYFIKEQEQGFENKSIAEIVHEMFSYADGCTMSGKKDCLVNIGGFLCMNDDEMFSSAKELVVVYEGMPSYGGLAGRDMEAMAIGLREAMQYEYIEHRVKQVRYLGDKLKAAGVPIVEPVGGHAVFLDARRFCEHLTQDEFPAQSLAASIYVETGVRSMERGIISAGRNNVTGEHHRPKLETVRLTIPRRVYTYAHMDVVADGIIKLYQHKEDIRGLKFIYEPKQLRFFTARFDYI

[4] = test system: mushroom tyrosinase (sigma); experiment: Mushroom tyrosinase oxidation (UV/visible spectra; dopaquinone production at 480 nm); type: biochemical
From the text: Thus, compound 1 is apparently able to bind strongly to mushroom tyrosinase.

Compound: [N-]=[N+]=Nc1cc(O)ccc1C[C@H](N)C(=O)O [compound 1, 2-azido-L-tyrosine]
- inhibition in isotope-incorporation ([1]; 0.005 to 1.5 mM, [3H]thymidine and [3H]leucine, five day period): Less than 10%
- growth of PC12 cells ([1]; maximum concentration 1.5 mM, 5 days): did not significantly inhibit
- incorporation of [3H]leucine ([2]; 1.0 mM, up to 72 hrs): not significantly different from control
- inhibition at 1000 µM ([2]; PC-12, 1.0 mM, 24 hours, read-out: inhibition of [3H]thymidine incorporation): 34%
- inhibition at 1000 µM ([2]; PC-12, 1.0 mM, 72 hours, read-out: inhibition of [3H]thymidine incorporation): 24%
- inhibition at 1000 µM ([2]; PC-12, 24 h, 1.0 mM, 24 hrs, compared to untreated controls, read-out: inhibition of [14CU]tyrosine incorporation): ~58%
- inhibition at 1000 µM ([2]; PC-12, 72 h, 1.0 mM, 72 hrs, compared to untreated controls, read-out: inhibition of [14CU]tyrosine incorporation): ~38%
- Vmax (relative to that of L-tyrosine) [3]: 18%
- lag period before oxidation of L-tyrosine ([4]; 0.1 mM, equimolar L-tyrosine, dopaquinone at 480 nm): much longer lag periods
- hydroxylation by mushroom tyrosinase ([4]; extensive incubation, UV and visible absorption spectra): not hydroxylated
- binding to mushroom tyrosinase ([4]; inferred from lag period): bind strongly
